Experiments:
[1] = Particle characteristics of the prepared formulation by particle size analyzer (Dynamic Light Scattering, DLS); type: physicochemical; details: mRNA formulation; lipid compound:DMG-PEG:DSPC:Cholesterol=50:1.5:10:38.5; N/P ratio 10; buffer exchanged to PBS
Description: (§1) The required amounts of the raw materials were mixed in order to meet the N/P ratio (amine group of lipid/phosphate group of mRNA) of 10 and each compound of formulas A to V:DMG-PEG:DSPC:Cholesterol=50:1.5:10:38.5. Ethanol was added to the ethanol layer so that the molecular total of all raw materials was within 12.5 mM, and the aqueous phase and ethanol phase were mixed maintaining a volume ratio of 3:1. After the mixing, to reduce the total ethanol content, buffer exchange was performed as follows: The mixture solution was concentrated by centrifugation at 4,000 rpm to 1/3 using an Amicon-Ultra tube filter (Merk Millipore, UFC505096 or UFC805024, pore size: 50K, volume: 0.5 mL or 4 mL), then diluted with three times the volume of PBS and centrifuged to concentrate. This process was repeated six times to exchange the buffer.
(§2) The more concrete procedure is as follows: • 1) Two autoclaved tubes were prepared (tubes (A) and (B)). • 2) In tube (A), each compound of formulas A to V, DSPC, cholesterol and DMG-PEG in molar quantities calculated according to the experimental conditions were sequentially added and mixed by vortexing. • 3) In the ethanol phase, when necessary, ethanol was added so that the molecular total of all raw materials was within 12.5 mM. • 4) In tube (B), mRNA and 20 mM sodium acetate buffer (pH 4.6) (=prepared by diluting with 3M sodium acetate buffer to 20 mM and titrating to pH 4.6 using 1M HCl) were mixed. At that time, the ratio was calculated and added so that the aqueous phase was total three times the amount of the ethanol phase. • 5) Mixing of Tube (A) and Tube (B) was performed using a Microfluidics (Ignite, Precision Nanosystem) device. Microfluidics operating conditions were FRR (Flow Rate Ratio) of C:R=3:1 and TRR (Total Flow Rate) of 12 mL/min. • 6) The resulting mixture from step 5) was concentrated by centrifugation at 4,000 rpm to 1/3 using an Amicon-Ultra tube filter (50K), then diluted 3-fold with PBS and concentrated by centrifugation. This process was repeated 6 times for concentration to the desired volume.
(§3) • 1) For the prepared formulation, particle characteristics (i.e., Zeta-average particle size (Z-average), polydispersity index (PDI), and zeta-potential) were confirmed using a particle size analyzer (Dynamic Light Scattering, DLS), and the results are shown in Table 1 below. • 2) For the prepared formulation, mRNA encapsulation efficiency was confirmed through Ribo-green assay, and the results are shown in Table 1 below.

mRNA = mRNA encapsulation efficiency of the prepared formulation by Ribo-green assay; type: physicochemical; details: lipid compound:DMG-PEG:DSPC:Cholesterol=50:1.5:10:38.5, N/P ratio 10, buffer exchanged to PBS
Description: as §1, §2, §3

| Compound | PDI (PI) [1] | Z-average [1] [nm] | Zeta-potential [1] [mV] | Encapsulation efficiency (mRNA) [%] |
| --- | --- | --- | --- | --- |
| CCCCOC(=O)CCCCCNC(=O)CCN(C)CCCN(C)CCC(=O)NCCCCCC(=O)OCCCC [Example 6] | 0.190 ± 0.011 | 125.9 ± 1.325 | -6.02 ± 2.949 | > 87.5 |
| CCCCCCCCCCC(CCCCCCCC)COC(=O)CCCCCNC(=O)CCN(CCN)CCC(=O)NCCCCCC(=O)OCC(CCCCCCCC)CCCCCCCCCC (centres unmarked) [Example 14] | 0.166 ± 0.027 | 113.8 ± 0.502 | -10.39 ± 1.994 | > 93.75 |
| CCCCCCCCCCCCC(CCCCCCCCCC)COC(=O)CCCCCNC(=O)CCN(CCN)CCC(=O)NCCCCCC(=O)OCC(CCCCCCCCCC)CCCCCCCCCCCC (centres unmarked) [Example 16] | 0.128 ± 0.015 | 128.9 ± 4.714 | 0.50 ± 3.461 | > 93.75 |
| CCCCCCCCCOC(=O)CCCCCNC(=O)CCN(CCCN(C)C)CCC(=O)NCCCCCC(=O)OCCCCCCCCC [Example 17] | 0.167 ± 0.009 | 127.3 ± 0.955 | 17.22 ± 3.314 | > 93.75 |
| CCCCCCCCC(CCCCCC)COC(=O)CCCCCNC(=O)CCN(CCC(=O)NCCCCCC(=O)OCC(CCCCCC)CCCCCCCC)CCN1CCOCC1 (centres unmarked) [Example 19] | 0.150 ± 0.022 | 146.7 ± 1.226 | -9.39 ± 0.137 | > 93.75 |
| CCCCC/C=C\C/C=C\CCCCCCCCOC(=O)CCCCCNC(=O)CCN(C)CCCN(C)CCC(=O)NCCCCCC(=O)OCCCCCCCC/C=C\C/C=C\CCCCC [Example 21] | 0.350 ± 0.009 | 120.0 ± 4.251 | 4.43 ± 0.746 | > 93.50 |
| CCCCCCCCC(OC(=O)CCCCCNC(=O)CCN(C)CCCN(C)CCC(=O)NCCCCCC(=O)OC(CCCCCCCC)C1CC1)C1CC1 (centres unmarked) [Example 22] | 0.3042 ± 0.026 | 121.0 ± 4.06 | 3.56 ± 3.67 | > 93.20 |

The remaining lines, values ahead:

| PDI (PI) [1] | Z-average [1] [nm] | Zeta-potential [1] [mV] | Encapsulation efficiency (mRNA) [%] | Compound |
| --- | --- | --- | --- | --- |
| 0.231 ± 0.012 | 147.8 ± 0.979 | -7.87 ± 0.754 | > 93.75 | CCCCCCC(CCCC)COC(=O)CCCCCNC(=O)CCN(C)CCCN(C)CCC(=O)NCCCCCC(=O)OCC(CCCC)CCCCCC (centres unmarked) [Example 4] |
| 0.156 ± 0.009 | 137.5 ± 1.364 | -6.66 ± 0.365 | > 96.9 | CCCCCCC(CCCCCC)COC(=O)CCCCCNC(=O)CCN(C)CCCN(C)CCC(=O)NCCCCCC(=O)OCC(CCCCCC)CCCCCC [Example 5] |
| 0.215 ± 0.018 | 118.6 ± 2.099 | 2.04 ± 0.365 | > 93.75 | CCCCCCCCCCC(CCCCCCCC)COC(=O)CCCCCNC(=O)CCN(C)CCCN(C)CCC(=O)NCCCCCC(=O)OCC(CCCCCCCC)CCCCCCCCCC (centres unmarked) [Example 7] |
| 0.188 ± 0.007 | 110.3 ± 1.700 | 4.83 ± 0.301 | > 99.2 | CCCCCCC(CCCCCC)COC(=O)CCCCCCCNC(=O)CCN(C)CCCN(C)CCC(=O)NCCCCCCCC(=O)OCC(CCCCCC)CCCCCC [Example 8] |
| 0.171 ± 0.006 | 118.2 ± 1.473 | 6.72 ± 0.073 | > 94.1 | CCCCCCCCC(CCCCCC)COC(=O)CCCCCNC(=O)CCN(C)CCCN(C)CCC(=O)NCCCCCC(=O)OCC(CCCCCC)CCCCCCCC (centres unmarked) [Example 10] |
| 0.186 ± 0.015 | 127.0 ± 0.325 | -0.40 ± 0.239 | > 93.75 | CCCCCCC(CCCCCC)COC(=O)CCCCCCCNC(=O)CCN(CCN)CCC(=O)NCCCCCCCC(=O)OCC(CCCCCC)CCCCCC [Example 15] |
| 0.199 ± 0.007 | 118.6 ± 0.565 | 10.96 ± 1.293 | > 93.75 | CCCCCCCCC(CCCCCC)COC(=O)CCCCCNC(=O)CCN(CCCN(C)C)CCC(=O)NCCCCCC(=O)OCC(CCCCCC)CCCCCCCC (centres unmarked) [Example 18] |
